From patent US20080280837A1, “Biologically Active Compounds with Anti-Angiogenic Properties” (priority 2004, published 2008)

Biological target: T1, Human SST5 somatostatin receptor (SSTR5) (Homo sapiens, UniProt P35346)
T1 construct: expressed in transfected cells; host or cells: HEK-293 EBNA
Test: Filter plate assay for SST5 receptor, displacement of [125I]SST-14
Format: binding
Protocol: Receptor membrane preparations containing the desired cloned receptor (for example cloned human somatostatin receptor subtype 5, SSTR5) and radio-labeled ligand (for example 3-[^125I]iodotyrosyl^11 Somatostatin-14)) were diluted at the concentration required for testing and according to the specific parameters associated with the selected receptor-ligand combination, including receptor Bmax, ligand Kd and any other parameters necessary to optimize the experimental conditions. When tested for competition activity to the reference ligand, “compound 1” was mixed with membrane suspension and the radiolabeled reference ligand (with or without an excess of cold ligand to the receptor for determination of non-specific binding) and incubated at the temperature required by internal standard operating procedures. Following incubation, the binding reaction was stopped by the addition of ice-cold washing buffer and filtered on appropriate filters, which are then counted. Data analysis and curve-fitting was performed with XLfit (IDBS).
10 mM solutions of test compounds in 100% DMSO were prepared. ˜160 μl was used for each dilution (20 μl/well in triplicate).
A 1.25 mM assay stock was prepared by making a 1:8 dilution of the 10 mM solution. (To 30 μL of the 10 mM solution was added 210 μL milli-Q H2O. A 1:5 dilution series in milli-Q H2O was then prepared.
Assays were performed in triplicate at each concentration within the 1:5 dilution series: 250 μM, 50 μM, 10 μM, […], 0.4 μM, 0.08 μM, 0.016 μM, 0.0032 μM, etc. (for SST4 assay) and 125 μM, 10 μM, 2 μM, 1 μM, 0.5 μM, etc (for SST5 assay).
Human SST5 somatostatin receptor was transfected into HEK-293 EBNA cells. Membranes were suspended in assay buffer (50 mM Tris-HCl, 1 mM EGTA, 5 mM MgCl2, 10% sucrose, pH 7.5).
After thawing the frozen receptor preparation rapidly, receptors were diluted with binding buffer, homogenized, and kept on ice. • 1. Use Multiscreen glass fiber filter plates (Millipore, Cat No MAFCNOB10) precoated with o.5% PEI for ˜2 hr at 4° C. Before use add 200 μl/well assay buffer and filter using Multiscreen Separation System. • 2. Incubate 5.5 μg of membranes (40 μl of a 1:40 dilution), buffer and [^125I]SST-14 (4 nM, ˜80 000 cpm, 2000 Ci/mmol) in a total volume of 200 μl for 60 min at 25° C. […] Prepare serial dilutions (1:5) of compounds, as described above and instead of adding SST-14 in well, add 20 μl of compounds (Table 1). • 3. Filter using Multiscreen Separation System with 5×0.2 ml ice-cold Assay buffer. • 4. Remove the plastic underdrain and dry plate in oven for 1 hr at 40° C. • 5. Seal tape to the bottom of the plate. • 6. Add 50 μl/well scintillant (Supermix, Wallac, Cat No 1200-439). • 7. Seal and count in the BJET, program 2.
In primary screening experiments compounds were tested in duplicate for a particular concentration.

T1 sequence (P35346 whole entry): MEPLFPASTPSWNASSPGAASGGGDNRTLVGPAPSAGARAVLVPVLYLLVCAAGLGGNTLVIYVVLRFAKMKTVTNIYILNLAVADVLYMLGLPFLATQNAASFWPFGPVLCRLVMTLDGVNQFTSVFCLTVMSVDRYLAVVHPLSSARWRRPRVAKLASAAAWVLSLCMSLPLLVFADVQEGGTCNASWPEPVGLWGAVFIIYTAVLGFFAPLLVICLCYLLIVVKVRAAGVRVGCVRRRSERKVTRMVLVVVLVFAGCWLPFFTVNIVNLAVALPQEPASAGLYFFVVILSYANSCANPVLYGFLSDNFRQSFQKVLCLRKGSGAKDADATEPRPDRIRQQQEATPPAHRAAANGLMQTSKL

SSTR5 Inhib 0.5 uM % (inhibition of binding of SST-14 to SSTR5) [%]	SSTR5 Inhib 10 uM % (inhibition of binding of SST-14 to SSTR5) [%]	Compound
59	84	COC[C@H]1OC(OCc2ccccc2)[C@H](NC(=O)CCCNC(=N)N)[C@H](OCc2ccc3ccccc3c2)[C@@H]1O (some centres unmarked) [Compound 100]
21	72	COC[C@H]1OC(OCc2ccccc2)[C@H](NC(=O)CCNC(=N)N)[C@@H](OCc2ccc(-c3ccccc3)cc2)[C@@H]1O (some centres unmarked) [Compound 172]
57	90	COC[C@H]1OC(OCc2ccc3ccccc3c2)[C@H](NC(=O)CCCNC(=N)N)[C@H](OCc2ccc3ccccc3c2)[C@@H]1O (some centres unmarked) [Compound 60]
38	76	CSC1O[C@H](COCc2ccc(-c3ccccc3)cc2)[C@@H](O)[C@@H](OCc2ccc(Cl)cc2)[C@H]1NC(=O)CCCN (some centres unmarked) [Compound 148]
47	83	COC[C@H]1OC(OCc2ccc(-c3ccccc3)cc2)[C@H](NC(=O)CCNC(=N)N)[C@@H](OCc2ccc(Cl)cc2)[C@@H]1O (some centres unmarked) [Compound 108]
57	90	COC[C@H]1OC(OCc2ccc3ccccc3c2)[C@H](NC(=O)CCCNC(=N)N)[C@H](OCc2ccccc2)[C@@H]1O (some centres unmarked) [Compound 64]
70	96	COC[C@H]1OC(OCCc2ccccc2)[C@H](NC(=O)CCCN)[C@H](OCc2ccc3ccccc3c2)[C@@H]1O (some centres unmarked) [Compound 28]
51	74	CO[C@H]1[C@H](O)[C@@H](COCc2ccc(-c3ccccc3)cc2)OC(OCc2ccc3ccccc3c2)[C@@H]1NC(=O)CCCN (some centres unmarked) [Compound 161]
52	80	CSC1O[C@H](COCc2ccc3ccccc3c2)[C@@H](O)[C@@H](OCc2ccc3ccccc3c2)[C@H]1NC(=O)CNC(=N)N (some centres unmarked) [Compound 131]
80	95	COC[C@H]1OC(OCc2ccccc2)[C@H](NC(=O)CCCN)[C@@H](OCc2ccc3ccccc3c2)[C@@H]1O (some centres unmarked) [Compound 32]
36	73	COC[C@H]1OC(OCCc2ccccc2)[C@H](NC(=O)CCNC(=N)N)[C@@H](OCc2ccc(Cl)cc2)[C@@H]1O (some centres unmarked) [Compound 166]
46	82	COC[C@H]1OC(OCc2ccc(Cl)cc2)[C@H](NC(=O)CCCN)[C@H](OCc2ccccc2)[C@@H]1O (some centres unmarked) [Compound 117]
46	81	COC[C@H]1OC(OCc2ccc(-c3ccccc3)cc2)[C@H](NC(=O)CCCNC(=N)N)[C@@H](OCc2ccc(Cl)cc2)[C@@H]1O (some centres unmarked) [Compound 120]
48	89	CO[C@H]1[C@H](O)[C@@H](COCc2ccc(-c3ccccc3)cc2)OC(OCc2ccc(Cl)cc2)[C@@H]1NC(=O)CCCNC(=N)N (some centres unmarked) [Compound 67]
68	94	COC[C@H]1OC(OCc2ccc3ccccc3c2)[C@H](NC(=O)CCCN)[C@H](OCc2ccc(-c3ccccc3)cc2)[C@@H]1O (some centres unmarked) [Compound 43]
66	95	COC1C(O)C(COCc2ccc(-c3ccccc3)cc2)OC(OCc2ccc(Cl)cc2)C1NC(=O)CCCN (centres unmarked) [Compound 40]
40	80	COC[C@H]1OC(OCc2ccc(-c3ccccc3)cc2)[C@H](NC(=O)CCCNC(=N)N)[C@@H](OCc2ccc(-c3ccccc3)cc2)[C@@H]1O (some centres unmarked) [Compound 130]

SSTR5 Inhib 0.5 uM % (inhibition of binding of SST-14 to SSTR5) [%]	SSTR5 Inhib 10 uM % (inhibition of binding of SST-14 to SSTR5) [%]	Compound
31	75	COC[C@H]1OC(OCc2ccc(Cl)cc2)[C@H](NC(=O)CNC(=N)N)[C@H](OCc2ccc3ccccc3c2)[C@@H]1O (some centres unmarked) [Compound 159]
80	96	COC[C@H]1OC(OCc2ccc(Cl)cc2)[C@H](NC(=O)CCCN)[C@@H](OCc2ccc(-c3ccccc3)cc2)[C@@H]1O (some centres unmarked) [Compound 30]
30	74	COC[C@H]1OC(OCc2ccccc2)[C@H](NC(=O)CNC(=N)N)[C@H](OCc2ccc3ccccc3c2)[C@@H]1O (some centres unmarked) [Compound 162]
90	98	COC[C@H]1OC(OCc2ccccc2)[C@H](NC(=O)CCN)[C@H](OCc2ccc3ccccc3c2)[C@@H]1O (some centres unmarked) [Compound 18]
50	83	COC[C@H]1OC(OCc2ccc(Cl)cc2)[C@H](NC(=O)CCCN)[C@@H](OCc2cccc(O)c2)[C@@H]1O (some centres unmarked) [Compound 113]
61	87	CSC1OC(COCc2ccc(Cl)cc2)C(O)C(OCc2ccc(-c3ccccc3)cc2)C1NC(=O)CN (centres unmarked) [Compound 83]
31	71	COC[C@H]1OC(OCc2ccc3ccccc3c2)[C@H](NC(=O)CNC(=N)N)[C@H](OCc2ccc3ccccc3c2)[C@@H]1O (some centres unmarked) [Compound 174]
61	90	COC[C@H]1OC(OCCc2ccccc2)[C@H](NC(=O)CCCNC(=N)N)[C@H](OCc2ccc(Cl)cc2)[C@@H]1O (some centres unmarked) [Compound 62]
37	81	COC[C@H]1OC(OCc2ccccc2)[C@H](NC(=O)CNC(=N)N)[C@H](OCc2ccc(-c3ccccc3)cc2)[C@@H]1O (some centres unmarked) [Compound 119]
24	80	COC[C@H]1OC(OCc2ccc3ccccc3c2)[C@H](NC(=O)CNC(=N)N)[C@H](OCc2ccc(Cl)cc2)[C@@H]1O (some centres unmarked) [Compound 133]
83	94	COC[C@H]1OC(OCc2ccc(Cl)cc2)[C@H](NC(=O)CCCN)[C@H](OCc2ccc(Cl)cc2)[C@@H]1O (some centres unmarked) [Compound 41]
47	86	COC[C@H]1OC(OCc2ccc(-c3ccccc3)cc2)[C@H](NC(=O)CCCNC(=N)N)[C@@H](OCc2ccc(Cl)cc2)[C@@H]1O (some centres unmarked) [Compound 93]
43	84	COC[C@H]1OC(OCc2ccc(Cl)cc2)[C@H](NC(=O)CCNC(=N)N)[C@H](OCc2ccc(-c3ccccc3)cc2)[C@@H]1O (some centres unmarked) [Compound 99]
34	76	CSC1O[C@H](COCc2ccc(Cl)cc2)[C@@H](O)[C@@H](OCc2ccc3ccccc3c2)[C@H]1NC(=O)CCCN (some centres unmarked) [Compound 153]
66	90	COC[C@H]1OC(OCc2ccccc2)[C@H](NC(=O)CCCN)[C@H](OCc2ccc(Cl)cc2)[C@@H]1O (some centres unmarked) [Compound 59]
40	77	COC[C@H]1OC(OCc2ccc3ccccc3c2)[C@H](NC(=O)CCCN)[C@@H](OCc2cccc(O)c2)[C@@H]1O (some centres unmarked) [Compound 146]
37	73	COC[C@H]1OC(OCc2ccccc2)[C@H](NC(=O)CCCNC(=N)N)[C@@H](OCc2ccc(-c3ccccc3)cc2)[C@@H]1O (some centres unmarked) [Compound 165]
